Series [1] deals with NMRI/BOM mice. The experiment in a line: Mouse forced swim test. Conditions: for ED50: SRI alone, mouse forced swim test; for ED50, SRI + 5-HTP (25 mg/kg): SRI in combination with 5-HTP 25 mg/kg SC. The format is in vivo. The source says: Male NMRI/BOM mice (18-25 g; Bomholtgaard, Denmark) were used. The mice were housed in plastic cages (35×30×12 cm), 10 in each and habituated to the animal facilities for at least a week before test. […] The animals had free access to commercial food pellets and tap water before test.
A mouse that is forced to swim in a spatially constrained container will exert a characteristic immobile posture. Pretreatment with an antidepressant will counteract this effect. […] Briefly, a fully automated test system with 6 swim units (2000 ml glass jars filled with 1200 ml soiled water (23-25° C.) in which a mouse had been placed previously) was used. The assessment of immobility was performed by image analysis.
Thirty minutes after drug or vehicle treatment the mice were treated with 5-HTP and 20 min later the mice were placed into the glass jar and left in the water for a total of 6 min. The accumulated duration of immobility was measured during the last 3 min. A total of 9-18 mice were tested per dose.

In series [2] the test system is BALB/cByJ mice. The experiment in a line: Mouse marble burying behavior. The format is in vivo. The source says:
Male BALB/cByJ mice (Jackson labs, Bar Harbor, Me.) were housed 5/cage upon arrival, at which time they were 7-8 weeks of age. Animals acclimated to the housing facility under standard laboratory conditions for a period of at least one week before testing (lights on at 6:00 AM). […] Fifteen minutes after the second injection, animals were individually placed into novel cages in which a layer of Aspen Pine bedding on which two parallel rows of 10 marbles each (i.e. twenty total) were placed. After 30 minutes had elapsed, the mice were removed from their test cages and returned to their home cages. The number of fully visible marbles (less than ⅔ covered with bedding) were counted and subtracted from 20 to arrive at the number of marbles buried.

The nature of series [3]: Mouse plasma levels of 5-HTP. The format is in vivo. Conditions: mouse forced swim test with escitalopram versus human clinical efficacy. The protocol: For this indication, typical doses of 100-200 mg of 5-HTP result in plasma levels of 50-100 ng/ml (Gijsman, H. J., et al., J Clin Psychopharmacol. 2002 April, 22(2):183-9).
The conditions of series [4]: cited from earlier work.
The conditions of series [5]: typical doses of 100-200 mg 5-HTP; cited from earlier work.
In series [6] the test system is rat. The settings on record: cited from earlier work.
Series [7] relates to extra-cellular 5-HT in frontal cortex. The experiment in a line: Rat microdialysis, extracellular 5-HT in frontal cortex of freely moving rats. The settings on record: escitalopram 0.5 mg/kg s.c. versus fluoxetine 10 mg/kg s.c.; 5-HTP 25 mg/kg s.c. 60 min later. The format is in vivo. As to the method:
FIG. 1. […] Microdialysis in freely moving rats was performed as described in detail by Mark, […]. and Sanchez, C. […] Briefly, male Sprague-Dawley rats were prepared for microdialysis by surgically implanting intracerebral guide cannulas. A microdialysis probe was inserted through the guide cannula. Perfusion of the microdialysis probe with filtered Ringer solution (146 mM NaCl, 3 mM KCl, 1 mM MgCl2, 1.2 mM CaCl2) was done before the insertion of the probe and continued for the duration of the experiments at a constant flow of 1 μl/minute into the frontal cortex.

In series [8] the test system is mouse. The settings on record: co-administration with L; cited from earlier work.
The mark [9] stands for this setting: in combination with escitalopram at a dose corresponding to a clinically effective concentration.

Read-outs that look alike come from different tables or passages of the source.

In the case of `NC(Cc1c[nH]c2ccc(O)cc12)C(=O)O` (centres unmarked) [5-HTP, 2-amino-3-(5-hydroxy-1H-indol-3-yl)-propanoic acid], the “potentiation of the response to escitalopram” value in series [1] (5-HTP 10, 15 and 50 mg/kg co-administered with escitalopram 0.5 mg/kg) is given as “significantly potentiates”. For the same compound, in series [1] (5-HTP 25 and 50 mg/kg without SRI), the “effect of 5-HTP alone” value is listed as “not by themselves effective”. In series [1] (setting [9]), the “5-HTP dose at which maximum potentiation effect was achieved” value is 50 mg/kg and the “minimal effective dose of 5-HTP” value was found to be 10 mg/kg. Besides, in series [2] (5-HTP 2.5 mg/kg), the “marble burying, 5-HTP alone” value is given as “no behavioral effect”. The “factor by which potentiating plasma levels in mouse are lower than those required for clinical efficacy in humans” value in series [3] was “at least 3 times”. The mouse plasma level in series [4] (5-HTP 25 mg/kg) was 17 ng/mL. In addition, the mouse plasma level in series [4] (5-HTP 50 mg/kg) was 41 ng/mL. For the same compound, the “plasma levels in humans” value in series [5] was 50 to 100 ng/mL.

What is called ED50 is the dose that gives a 50% effect, or the effect in half of the subjects. Lower therefore signals an effect at a small dose. With `CN(C)CCC[C@@]1(c2ccc(F)cc2)OCc2cc(C#N)ccc21` [Escitalopram, S-(+)-1-[3-(dimethylamino)propyl]-1-(p-fluorophenyl)-5-phthalancarbonitrileoxalate], in series [1], the ED50 is 12 mg/kg and the “ED50, SRI + 5-HTP (25 mg/kg)” value was determined as 0.42 mg/kg. The “anxiolytic response to co-treatment with L, 5-HTP” value in series [6] was “markedly enhanced”. Further, in series [7], the “5-HTP potentiation effect measured as increase of extra-cellular 5-HT in the frontal cortex” value is given as “dramatically higher”. For the same compound, in series [2] (0.25 mg/kg IP), the “marble burying, escitalopram without 5-HTP” value was “inactive”. Moreover, the “marble burying, escitalopram with 5-HTP” value in series [2] (escitalopram 0.0625-0.25 mg/kg plus 5-HTP 2.5 mg/kg) is “significant reduction in marble burying”.

For `CNCCC(Oc1ccc(C(F)(F)F)cc1)c1ccccc1` (centres unmarked) [Fluoxetine], in series [1], the ED50 was more than 8.9 mg/kg and the “ED50, SRI + 5-HTP (25 mg/kg)” value was 5.4 mg/kg.

As for `Fc1ccc([C@@H]2CCNC[C@H]2COc2ccc3c(c2)OCO3)cc1` [Paroxetine, (3S,4R)-3-((1,3-benzodioxol-5-yloxy)methyl)-4-(4-fluorophenyl)-piperidine], in series [1], the 50% effect level (ED50) was put at a dose of 6.5 mg/kg and the “ED50, SRI + 5-HTP (25 mg/kg)” value worked out at 0.64 mg/kg. Moreover, the “antiaggressive effect with a subeffective dose of L, 5-HTP” value in series [8] was “greatly potentiated”.

On to `CN(C)CCC[C@]1(c2ccc(F)cc2)OCc2cc(C#N)ccc21` [R-citalopram], for which, in series [6], the “anxiolytic response to co-treatment with L, 5-HTP” value is recorded as “significant increase of ultrasonic vocalization”.

Regarding `COc1ccc(C(CN(C)C)C2(O)CCCCC2)cc1` (centres unmarked) [Venlafaxine], in series [1], the median effective dose (ED50) is more than 10 mg/kg and the “ED50, SRI + 5-HTP (25 mg/kg)” value was 3.9 mg/kg.

The values are drawn from US20070213370A1, “5-HTP Combination Therapy” (H. Lundbeck A/S, priority 2005, published 2007).
